Values after ≈ are worked out from the molar mass of the structure shown. Where two headings read alike, the source gives them in different places.
What was measured:
VIM-1 = molecular target: T1, VIM-1 (Pseudomonas aeruginosa, UniProt A0A0F7KYQ8); assay: β-lactamase inhibition, spectrophotometric assay of nitrocefin hydrolysis; type: biochemical; details: for IC50: class B β-lactamase, 10 μM ZnSO4, 200 μM nitrocefin, 25° C., 2 hours, read-out: IC50 VIM-1
T1 construct: made in house
Description: (§1) Hydrolytic inactivation of the β-lactam antibiotics by β-lactamases is the most widespread drug resistant mechanism and the most challenge clinically among Gram-negative bacterial pathogens. Based on the amino acid sequences, the β-lactamases are grouped into four classes (Ambler classification), of which A, C and D are serine hydrolases and B encompasses metallo-β-lactamases. The IC50 of selected derivatives disclosed herein (identified with reference to example number) plus six reference β-lactam or β-lactamase inhibitors were determined against 7 representative β-lactamases of various classes in a standard spectrophotometric assay of nitrocefin hydrolysis. The assay is performed in 384-well plate. The seven recombinant β-lactamases AmpC_AB (from A. baumannii), AmpC_PA (from P. aeruginosa), KPC-2, NDM-1, IMP-1, VIM-1 and OXA 24/40) are expressed and purified. The reaction buffer for class A, C and D enzymes is 100 mM Na2HPO4—KH2PO4 (pH 7.1) plus 0.005% Tween-20, and for class B enzymes 10 μM ZnSO4 is added. […] The 50 μL of reaction solution composed of 2 pM of β-lactamase, 200 μM of nitrocefin and series of 3-fold dilutions of test or control compounds are added by Cybio SELMA system into 384-plate and incubated in dark at 25° C. for 2 hours. The OD490 is read in MC SpectraMax Plus384 plate reader.

IMP-1 = molecular target: T2, IMP-1 (Serratia marcescens, UniProt P52699); assay: as above; type: biochemical; details: class B β-lactamase, 10 μM ZnSO4; 200 μM nitrocefin, 25° C., 2 hours; read-out: IC50 IMP-1
T2 construct: made in house
Description: as §1

NDM-1 = molecular target: T3, NDM-1 (Klebsiella pneumoniae, UniProt C7C422); assay: as above; type: biochemical; details: class B β-lactamase, 10 μM ZnSO4; 200 μM nitrocefin, 25° C., 2 hours; read-out: IC50 NDM-1
T3 construct: made in house
Description: as §1

AmpC_AB = AmpC_AB (Acinetobacter baumannii, UniProt Q6DRA1); assay: as above; type: biochemical
Description: as §1

AmpC_PA = molecular target: T4, AmpC_PA (Pseudomonas aeruginosa, UniProt P24735); assay: as above; type: biochemical, P. aeruginosa
T4 construct: made in house
Description: as §1

KPC-2 = molecular target: T5, KPC-2 (Klebsiella pneumoniae, UniProt Q9F663); assay: as above; type: biochemical; details: class A β-lactamase; 200 μM nitrocefin, 25° C., 2 hours; read-out: IC50 KPC-2
T5 construct: made in house
Description: as §1

OXA 24/40 = molecular target: T6, OXA 24/40 (Acinetobacter baumannii, UniProt Q8RLA6); assay: as above; type: biochemical
T6 construct: made in house
Description: as §1

A.b TNP 41704 = assay: MIC against A. baumannii clinical isolates, alone and in combination with antibiotics; type: cell-based; details: for MIC: Acinetobacter baumannii, TNP41704, Compounds alone, read-out: MIC A.b TNP 41704
A.b TNP 41709 = assay: as above; type: cell-based; details: for MIC: Acinetobacter baumannii, TNP41709, Compounds alone, read-out: MIC A.b TNP 41709
P. aeruginosa ATCC 27853 = assay: MIC determination, broth microdilution, ESKAPE panel; type: cell-based; details: Pseudomonas aeruginosa, ATCC27853; iron-depleted cation-adjusted Mueller-Hinton broth, 2,2-dipyridyl 160 μM; 37° C., 18-20 hours; read-out: MIC P. aeruginosa ATCC 27853
Experimental: (§2) Minimum inhibitory concentration (MIC) is determined by a broth microdilution method according to the recommendation of the Clinical and Laboratory Standards Institute (CLSI) with minor modification. […] Strains of an ESKAPE panel (E. faecium ATCC 700221, S. aureus ATCC 29213, K. pneumoniae ATCC 43816, A. baumannii ATCC 19606, P. aeruginosa ATCC 27853 and Escherichia coli ATCC 25922) were obtained originally from the American Type Culture Collection (ATCC) and used for MIC determinations of compounds. The bacteria inoculum in the test is […].

A. baumannii ATCC 19606 = assay: as above; type: cell-based; details: Acinetobacter baumannii, ATCC19606; iron-depleted cation-adjusted Mueller-Hinton broth, 2,2-dipyridyl 160 μM; 37° C., 18-20 hours; read-out: MIC A. baumannii ATCC 19606
Experimental: as §2

K. pneumoniae ATCC 43816 = assay: as above; type: cell-based; details: Klebsiella pneumoniae, ATCC43816; iron-depleted cation-adjusted Mueller-Hinton broth, 2,2-dipyridyl 160 μM; 37° C., 18-20 hours; read-out: MIC K. pneumoniae ATCC 43816
Experimental: as §2

E. faecium ATCC 700221 = assay: as above; type: cell-based; details: Enterococcus faecium, ATCC700221; iron-depleted cation-adjusted Mueller-Hinton broth, 2,2-dipyridyl 160 μM; 37° C., 18-20 hours; read-out: MIC E. faecium ATCC 700221
Experimental: as §2

S. aureus ATCC 29213 = assay: as above; type: cell-based; details: Staphylococcus aureus, ATCC29213; iron-depleted cation-adjusted Mueller-Hinton broth, 2,2-dipyridyl 160 μM; 37° C., 18-20 hours; read-out: MIC S. aureus ATCC 29213
Experimental: as §2

[1] = test system: Escherichia coli ATCC 25922; assay: as above; type: cell-based; details: ATCC25922, iron-depleted cation-adjusted Mueller-Hinton broth, 2,2-dipyridyl 160 μM, 37° C., 18-20 hours, read-out: MIC E. coli ATCC 25922
Experimental: as §2

A.b TNP 41708 = assay: MIC against A. baumannii clinical isolates, alone and in combination with antibiotics; type: cell-based; details: for MIC: Acinetobacter baumannii, TNP41708, read-out: MIC A.b TNP 41708
Experimental: as §2

[2] = Class C β-lactamase, 200 μM nitrocefin, 25° C., 2 hours, read-out: IC50 AmpC_AB

T2 sequence (P52699 19-246, looked up, species assumed): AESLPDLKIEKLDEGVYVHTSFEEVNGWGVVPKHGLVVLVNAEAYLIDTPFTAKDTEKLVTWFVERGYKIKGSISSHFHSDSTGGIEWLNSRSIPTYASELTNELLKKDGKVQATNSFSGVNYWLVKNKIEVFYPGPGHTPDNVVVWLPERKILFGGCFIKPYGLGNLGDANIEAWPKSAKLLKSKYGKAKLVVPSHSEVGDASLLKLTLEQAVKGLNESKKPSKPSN
T5 sequence (Q9F663 25-293, looked up, species assumed): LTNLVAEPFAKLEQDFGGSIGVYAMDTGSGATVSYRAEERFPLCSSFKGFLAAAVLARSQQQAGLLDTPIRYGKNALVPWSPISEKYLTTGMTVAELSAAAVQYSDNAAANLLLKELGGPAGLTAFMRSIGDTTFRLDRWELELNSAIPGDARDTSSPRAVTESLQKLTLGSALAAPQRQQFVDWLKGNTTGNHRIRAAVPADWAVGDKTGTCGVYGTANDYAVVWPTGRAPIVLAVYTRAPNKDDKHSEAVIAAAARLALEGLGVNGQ
T4 sequence (P24735 27-397): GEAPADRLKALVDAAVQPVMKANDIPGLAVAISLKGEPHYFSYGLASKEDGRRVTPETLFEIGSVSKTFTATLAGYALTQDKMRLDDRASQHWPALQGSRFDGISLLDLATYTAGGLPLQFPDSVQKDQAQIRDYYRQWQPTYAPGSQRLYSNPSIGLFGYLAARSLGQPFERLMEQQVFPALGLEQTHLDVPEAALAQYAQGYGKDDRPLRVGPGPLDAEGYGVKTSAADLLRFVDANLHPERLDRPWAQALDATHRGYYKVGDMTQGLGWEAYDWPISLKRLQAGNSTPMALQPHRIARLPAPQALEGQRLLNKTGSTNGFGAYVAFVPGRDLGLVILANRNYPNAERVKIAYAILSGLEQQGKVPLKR
T6 sequence (Q8RLA6 22-275): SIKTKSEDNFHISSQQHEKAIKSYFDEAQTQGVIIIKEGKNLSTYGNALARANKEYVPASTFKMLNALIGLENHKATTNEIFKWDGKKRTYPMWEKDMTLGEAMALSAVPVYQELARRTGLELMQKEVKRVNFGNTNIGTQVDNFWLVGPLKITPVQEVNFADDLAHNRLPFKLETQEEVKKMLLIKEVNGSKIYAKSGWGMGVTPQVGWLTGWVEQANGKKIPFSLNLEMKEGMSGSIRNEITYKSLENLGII
T3 sequence (C7C422 29-270, looked up, species assumed): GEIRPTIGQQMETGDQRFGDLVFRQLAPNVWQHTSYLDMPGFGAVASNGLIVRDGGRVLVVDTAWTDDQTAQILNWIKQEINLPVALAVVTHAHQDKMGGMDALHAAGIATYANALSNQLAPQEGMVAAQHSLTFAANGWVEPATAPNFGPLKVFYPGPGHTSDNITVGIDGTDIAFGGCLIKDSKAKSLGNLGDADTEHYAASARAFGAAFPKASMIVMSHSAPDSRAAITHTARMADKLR

| SMILES | IC50 (VIM-1) [µM] | IC50 (IMP-1) [µM] | IC50 (NDM-1) [µM] | IC50 (AmpC_AB; [2]) [µM] | IC50 (AmpC_PA) [µM] | IC50 (KPC-2) [µM] | IC50 (OXA 24/40) [µM] | further results |
| --- | --- | --- | --- | --- | --- | --- | --- | --- |
| NC(=O)[C@@H]1CC[C@@H]2CN1C(=O)N2OS(=O)(=O)O [Avibactam, reference compound] | > 200 | > 200 | > 200 | 2.61 | – | – | – | – |
| O=C(O)[C@H]1/C(=C/CO)O[C@@H]2CC(=O)N21 [Clavulanate, reference compound] | > 200 | > 200 | > 200 | – | > 200 | > 200 | > 200 | IC50 (AmpC_AB): > 200 µM |
| CN(/N=C/[C@@]1(C)[C@H](C(=O)O)N2C(=O)C[C@H]2S1(=O)=O)C(=O)c1ccc(O)c(O)c1Cl [Example 3, (2S,3R,5R)-3-((E)-(2-(2-chloro-3,4-dihydroxybenzoyl)-2-methylhydrazono)methyl)-3-methyl-7-oxo-4-thia-1-azabicyclo[3.2.0]heptane-2-carboxylic acid 4,4-dioxide] | > 200 | > 200 | > 200 | 0.72 | 2.42 | > 200 | 2.3 | – |
| C[C@]1(/C=N/NC(=O)c2ccc(O)c(O)c2)[C@H](C(=O)O)N2C(=O)C[C@H]2S1(=O)=O [Example 5, (2S,3R,5R)-3-((E)-(2-(3,4-dihydroxybenzoyl)hydrazono)methyl)-3-methyl-7-oxo-4-thia-1-azabicyclo[3.2.0]heptane-2-carboxylic acid 4,4-dioxide] | > 200 | > 200 | > 200 | 1.04 | 1.72 | > 200 | 11.6 | MIC (A.b TNP 41704): > 128 µg/mL; MIC A.b TNP 41704 (A.b TNP 41704; Compounds + meropenem (1:1)): 4 µg/mL; MIC A.b TNP 41704 (A.b TNP 41704; Compounds + sulbactam (1:1)): 4 µg/mL; MIC (A.b TNP 41709): 32 µg/mL; MIC A.b TNP 41709 (A.b TNP 41709; Compounds + meropenem (1:1)): 2 µg/mL; MIC A.b TNP 41709 (A.b TNP 41709; Compounds + sulbactam (1:1)): 4 µg/mL; MIC (P. aeruginosa ATCC 27853): > 128 µg/mL; MIC (A. baumannii ATCC 19606): 4 µg/mL (≈ 10.1 µM); MIC (K. pneumoniae ATCC 43816): 32 µg/mL (≈ 80.5 µM); MIC (E. faecium ATCC 700221): > 128 µg/mL; MIC (S. aureus ATCC 29213): 128 µg/mL (≈ 322 µM); MIC [1]: 64 µg/mL (≈ 161 µM); MIC (A.b TNP 41708): > 128 µg/mL; MIC A.b TNP 41708 (A.b TNP 41708; Compounds + meropenem (1:1)): 4 µg/mL; MIC A.b TNP 41708 (A.b TNP 41708; Compounds + sulbactam (1:1)): 8 µg/mL |
| CN(/N=C/[C@@]1(C)[C@H](C(=O)O)N2C(=O)C[C@H]2S1(=O)=O)C(=O)c1ccc(O)c(O)c1 [Example 7, (2S,3R,5R)-3-((E)-(2-(3,4-dihydroxybenzoyl)-2-methylhydrazono)methyl)-3-methyl-7-oxo-4-thia-1-azabicyclo[3.2.0]heptane-2-carboxylic acid 4,4-dioxide] | 58.2 | > 200 | > 200 | 0.596 | 1.52 | > 200 | 6.03 | activity against VIM-1 of class B (in words) (VIM-1; text summary of Table 4): weak activity |
| C[C@]1(/C=N/NC(=O)c2cnccn2)[C@H](C(=O)O)N2C(=O)C[C@H]2S1(=O)=O [Example 19, (2S,3R,5R)-3-methyl-7-oxo-3-((E)-(2-(pyrazine-2-carbonyl)hydrazono)methyl)-4-thia-1-azabicyclo[3.2.0]heptane-2-carboxylic acid 4,4-dioxide] | > 200 | > 200 | > 200 | 5.76 | 3.68 | > 200 | 2.49 | – |
| C[C@]1(/C=N/NC(=O)c2ccc(O)c(O)c2Cl)[C@H](C(=O)O)N2C(=O)C[C@H]2S1(=O)=O [Example 23, (2S,3R,5R)-3-((E)-(2-(2-chloro-3,4-dihydroxybenzoyl)hydrazono)methyl)-3-methyl-7-oxo-4-thia-1-azabicyclo[3.2.0]heptane-2-carboxylic acid 4,4-dioxide] | > 200 | > 200 | > 200 | 0.718 | 2.45 | > 200 | 3.18 | – |
| C[C@]1(/C=N/NC(=O)C2CCN(C(=O)c3ccc(O)c(O)c3Cl)C2)[C@H](C(=O)O)N2C(=O)C[C@H]2S1(=O)=O (stereo partly drawn) [Example 38, (2S,3R,5R)-3-((E)-(2-(1-(2-chloro-3,4-dihydroxybenzoyl)pyrrolidine-3-carbonyl)hydrazono)methyl)-3-methyl-7-oxo-4-thia-1-azabicyclo[3.2.0]heptane-2-carboxylic acid 4,4-dioxide] | > 200 | > 200 | > 200 | 7.62 | 2.38 | > 200 | 5.93 | MIC (A.b TNP 41704): > 128 µg/mL; MIC A.b TNP 41704 (A.b TNP 41704; Compounds + meropenem (1:1)): 4 µg/mL; MIC A.b TNP 41704 (A.b TNP 41704; Compounds + sulbactam (1:1)): 4 µg/mL; MIC (A.b TNP 41709): > 128 µg/mL; MIC A.b TNP 41709 (A.b TNP 41709; Compounds + meropenem (1:1)): 2 µg/mL; MIC A.b TNP 41709 (A.b TNP 41709; Compounds + sulbactam (1:1)): 8 µg/mL; MIC (P. aeruginosa ATCC 27853): > 128 µg/mL; MIC (A. baumannii ATCC 19606): 8 µg/mL (≈ 15.1 µM); MIC (K. pneumoniae ATCC 43816): 32 µg/mL (≈ 60.5 µM); MIC (E. faecium ATCC 700221): > 128 µg/mL; MIC (S. aureus ATCC 29213): 128 µg/mL (≈ 242 µM); MIC [1]: > 128 µg/mL; MIC (A.b TNP 41708): > 128 µg/mL; MIC A.b TNP 41708 (A.b TNP 41708; Compounds + meropenem (1:1)): 4 µg/mL; MIC A.b TNP 41708 (A.b TNP 41708; Compounds + sulbactam (1:1)): 8 µg/mL |
| C[C@]1(COC(=O)NNC(=O)c2ccc(O)c(O)c2)[C@H](C(=O)O)N2C(=O)C[C@H]2S1(=O)=O [Example 69, (2S,3R,5R)-3-(((2-(3,4-dihydroxybenzoyl)hydrazinecarbonyl)oxy)methyl)-3-methyl-7-oxo-4-thia-1-azabicyclo[3.2.0]heptane-2-carboxylic acid 4,4-dioxide] | > 200 | > 200 | > 200 | 3.6 | 8.6 | > 200 | 65.2 | – |
| O=C(NC1CCNCC1)[C@@H]1CC[C@@H]2CN1C(=O)N2OS(=O)(=O)O [Relebactam, reference compound] | > 200 | > 200 | > 200 | 0.892 | – | – | > 200 | – |
| C[C@]1(Cn2ccnn2)[C@H](C(=O)O)N2C(=O)C[C@H]2S1(=O)=O [Tazobactam, reference compound] | > 200 | > 200 | > 200 | – | – | 90.2 | 123 | IC50 (AmpC_AB): 23.8 µM |
| O=C(NNC(=O)[C@@H]1CC[C@@H]2CN1C(=O)N2OS(=O)(=O)O)[C@@H]1CCCNC1 [Zidebactam, reference compound] | > 200 | > 200 | > 200 | 0.248 | – | 2.36 | 51 | – |
